≈ marks a conversion by molar mass, not a printed value.
Tests used:
[1] = test system: Pseudomonas aeruginosa; test: Minimal inhibitory concentration against gram negative Pseudomonas aeruginosa 25416 strain (Range is 12-25 uM); format: functional
[2] = test system: Streptococcus pneumoniae; test: Minimal inhibitory concentration against gram positive Streptococcus pneumoniae 6303 strain (Range is 6-12 uM); format: functional
[3] = test system: Streptococcus pyogenes; test: Minimal inhibitory concentration against gram positive Streptococcus pyogenes 49399 strain (Range is 3-6 uM); format: functional
[4] = test system: Staphylococcus aureus; test: Minimal inhibitory concentration against Staphylococcus aureus (Range is 3-6 uM); format: functional
[5] = test system: Escherichia coli; test: Minimal inhibitory concentration against Escherichia coli (Range is 6-12 uM); format: functional
[6] = test system: Enterococcus hirae; test: Minimal inhibitory concentration against gram positive Enterococcus hirae 29212 strain (Range is 1-3 uM); format: functional
[7] = test system: Escherichia coli; test: Minimal inhibitory concentration against gram negative Escherichia coli 25922 strain (Range is 6-12 uM); format: functional; details: ATCC25922
[8] = test system: Bacteria; test: Inhibitory activity against bacteria in the transcription/translation assay; format: functional, organism-based
[9] = test system: Staphylococcus aureus; test: Minimal inhibitory concentration against gram positive Staphylococcus aureus 13709 strain (Range is 3-6 uM); format: functional
[10] = test system: Klebsiella pneumoniae; test: Minimal inhibitory concentration against gram negative Klebsiella pneumoniae 13383 strain (Range is 6-12 uM); format: functional
[11] = test system: Staphylococcus aureus; test: Minimal inhibitory concentration against Staphylococcus aureus (Range is 12-50 uM); format: functional
[12] = test system: Staphylococcus aureus; test: Minimal inhibitory concentration against gram positive Staphylococcus aureus 13709 strain (Range is 6-12 uM); format: functional
[13] = test system: Enterococcus hirae; test: Minimal inhibitory concentration against gram positive Enterococcus hirae 29212 strain (Range is 25-50 uM); format: functional
[14] = test system: Pseudomonas aeruginosa; test: Minimal inhibitory concentration against gram negative Pseudomonas aeruginosa 25416 strain (Range is 50-100 uM); format: functional
[15] = test system: Proteus vulgaris; test: Minimal inhibitory concentration against gram negative Proteus vulgaris 8427 strain (Range is 25-50 uM); format: functional
[16] = test system: Escherichia coli; test: Minimal inhibitory concentration against gram negative Escherichia coli 25922 strain (Range is 25-50 uM); format: functional; details: ATCC25922
[17] = test system: Klebsiella pneumoniae; test: Minimal inhibitory concentration against gram negative Klebsiella pneumoniae 13383 strain (Range is 25-50 uM); format: functional
[18] = test system: Escherichia coli; test: Minimal inhibitory concentration against Escherichia coli (Range is 25-50 uM); format: functional
[19] = test system: Streptococcus pneumoniae; test: Minimal inhibitory concentration against gram positive Streptococcus pneumoniae 6303 strain (Range is 12-25 uM); format: functional
[20] = test system: Streptococcus pyogenes; test: Minimal inhibitory concentration against gram positive Streptococcus pyogenes 49399 strain (Range is 25-50 uM); format: functional
[21] = test system: Staphylococcus aureus; test: Minimal inhibitory concentration against Staphylococcus aureus (Range is 6-12 uM); format: functional
[22] = test system: Streptococcus pyogenes; test: Minimal inhibitory concentration against gram positive Streptococcus pyogenes 49399 strain (Range is 6-12 uM); format: functional
[23] = test system: Klebsiella pneumoniae; test: Minimal inhibitory concentration against gram negative Klebsiella pneumoniae 13383 strain (Range is 12-25 uM); format: functional
[24] = test system: Proteus vulgaris; test: Minimal inhibitory concentration against gram negative Proteus vulgaris 8427 strain; format: functional
[25] = test system: Pseudomonas aeruginosa; test: Minimal inhibitory concentration against gram negative Pseudomonas aeruginosa 25416 strain; format: functional
[26] = test system: Staphylococcus aureus; test: Minimal inhibitory concentration against Staphylococcus aureus (Range is 1-3 uM); format: functional
[27] = test system: Escherichia coli; test: Minimal inhibitory concentration against Escherichia coli (Range is 3-6 uM); format: functional
[28] = test system: Enterococcus hirae; test: Minimal inhibitory concentration against gram positive Enterococcus hirae 29212 strain (Range is 3-6 uM); format: functional
[29] = test system: Pseudomonas aeruginosa; test: Minimal inhibitory concentration against gram negative Pseudomonas aeruginosa 25416 strain (Range is 25-50 uM); format: functional
[30] = test system: Escherichia coli; test: Minimal inhibitory concentration against gram negative Escherichia coli 25922 strain (Range is 12-25 uM); format: functional; details: ATCC25922
[31] = test system: Escherichia coli; test: Minimal inhibitory concentration against Escherichia coli (Range is 12-25 uM); format: functional
[32] = test system: Staphylococcus aureus; test: Minimal inhibitory concentration against Staphylococcus aureus (Range is 12-25 uM); format: functional
[33] = test system: Escherichia coli; test: Minimal inhibitory concentration against gram negative Escherichia coli 25922 strain (Range is 12-26 uM); format: functional; details: ATCC25922
[34] = test system: Pseudomonas aeruginosa; test: Minimal inhibitory concentration against gram negative Pseudomonas aeruginosa 25416 strain (Range is 6-12 uM); format: functional
[35] = test system: Staphylococcus aureus; test: Minimal inhibitory concentration against gram positive Staphylococcus aureus 13709 strain (Range is 3-7 uM); format: functional
[36] = test system: Enterococcus hirae; test: Minimal inhibitory concentration against gram positive Enterococcus hirae 29212 strain (Range is 0.75-1.5 uM); format: functional
[37] = test system: Proteus vulgaris; test: Minimal inhibitory concentration against gram negative Proteus vulgaris 8427 strain (Range is 12-25 uM); format: functional
[38] = test system: Escherichia coli; test: Minimal inhibitory concentration against Escherichia coli; format: functional
[39] = test system: Klebsiella pneumoniae; test: Minimal inhibitory concentration against gram negative Klebsiella pneumoniae 13383 strain (Range is 50-100 uM); format: functional
[40] = test system: Escherichia coli; test: Minimal inhibitory concentration against gram negative Escherichia coli 25922 strain; format: functional; details: ATCC25922

Structure (SMILES) | MIC [2] [µM] | IC50 [8] [µM] | MIC [12] [µM] | MIC [15] [µM] | MIC [17] [µM] | MIC [19] [µM] | MIC [20] [µM] | MIC [21] [µM] | MIC [22] [µM] | MIC [25] [µM] | MIC [31] [µM] | other results
Clc1cc2nc(C3CCNCC3)n(Cc3ccc(Cn4c(C5CCNCC5)nc5cc(Cl)c(Cl)cc54)cc3)c2cc1Cl | 12 (≈ 7.71 µg/mL) | > 100 | – | – | – | – | – | – | – | – | – | MIC [1]: 25 µM (≈ 16.1 µg/mL); MIC [3]: 6 µM (≈ 3.85 µg/mL); MIC [4]: 6 µM (≈ 3.85 µg/mL); MIC [5]: 12 µM (≈ 7.71 µg/mL); MIC [6]: 3 µM (≈ 1.93 µg/mL); MIC [7]: 12 µM (≈ 7.71 µg/mL); MIC [9]: 6 µM (≈ 3.85 µg/mL); MIC [10]: 12 µM (≈ 7.71 µg/mL)
O=C1c2ccccc2C(=O)N1CCCCCn1c(C2CCNCC2)nc2cc(Cl)c(Cl)cc21 | – | 25 | 12 (≈ 5.82 µg/mL) | 50 (≈ 24.3 µg/mL) | 50 (≈ 24.3 µg/mL) | 25 (≈ 12.1 µg/mL) | 50 (≈ 24.3 µg/mL) | – | – | – | – | MIC [11]: 50 µM (≈ 24.3 µg/mL); MIC [13]: 50 µM (≈ 24.3 µg/mL); MIC [14]: 100 µM (≈ 48.5 µg/mL); MIC [16]: 50 µM (≈ 24.3 µg/mL); MIC [18]: 50 µM (≈ 24.3 µg/mL)
COc1cc(NC(=O)NNC(=O)Cn2c(C3CCNCC3)nc3cc(Cl)c(Cl)cc32)cc(OC)c1 | – | > 100 | 12 (≈ 6.26 µg/mL) | – | – | 25 (≈ 13 µg/mL) | – | 12 (≈ 6.26 µg/mL) | 12 (≈ 6.26 µg/mL) | > 100 | – | MIC [23]: 25 µM (≈ 13 µg/mL); MIC [24]: > 100 µM; MIC [16]: 50 µM (≈ 26.1 µg/mL); MIC [18]: 50 µM (≈ 26.1 µg/mL); MIC [6]: 3 µM (≈ 1.56 µg/mL)
NC[C@@H]1O[C@H](O[C@H]2[C@@H](O)[C@H](O[C@@H]3[C@@H](O)[C@H](N)C[C@H](N)[C@H]3O[C@H]3O[C@H](CO)[C@@H](O)[C@H](O)[C@H]3N)O[C@@H]2CO)[C@H](N)[C@@H](O)[C@@H]1O [PAROMOMYCIN] | – | – | – | – | – | – | – | – | – | – | – | MIC [26]: 3 µM (≈ 1.85 µg/mL); MIC [27]: 6 µM (≈ 3.69 µg/mL)
O=C(Cn1c(C2CCNCC2)nc2cc(Cl)c(Cl)cc21)NNC(=O)Nc1ccc2ccccc2c1 | – | > 100 | 12 (≈ 6.14 µg/mL) | 50 (≈ 25.6 µg/mL) | – | 25 (≈ 12.8 µg/mL) | – | 12 (≈ 6.14 µg/mL) | 12 (≈ 6.14 µg/mL) | – | 25 (≈ 12.8 µg/mL) | MIC [28]: 6 µM (≈ 3.07 µg/mL); MIC [29]: 50 µM (≈ 25.6 µg/mL); MIC [30]: 25 µM (≈ 12.8 µg/mL); MIC [10]: 12 µM (≈ 6.14 µg/mL)
Clc1cc2nc(C3CCNCC3)n(CCCCCn3c(C4CCNCC4)nc4cc(Cl)c(Cl)cc43)c2cc1Cl | 12 (≈ 7.3 µg/mL) | 35 | – | 50 (≈ 30.4 µg/mL) | 50 (≈ 30.4 µg/mL) | – | 50 (≈ 30.4 µg/mL) | – | – | – | 25 (≈ 15.2 µg/mL) | MIC [32]: 25 µM (≈ 15.2 µg/mL); MIC [33]: 26 µM (≈ 15.8 µg/mL); MIC [34]: 12 µM (≈ 7.3 µg/mL); MIC [35]: 7 µM (≈ 4.26 µg/mL); MIC [36]: 1.5 µM (≈ 0.913 µg/mL)
O=C(Cn1c(C2CCNCC2)nc2cc(Cl)c(Cl)cc21)NNC(=O)NC12C[C@H]3C[C@@H](C1)C[C@@H](C2)C3 | – | > 100 | 12 (≈ 6.23 µg/mL) | – | 50 (≈ 26 µg/mL) | 25 (≈ 13 µg/mL) | – | 12 (≈ 6.23 µg/mL) | 12 (≈ 6.23 µg/mL) | > 100 | 25 (≈ 13 µg/mL) | MIC [28]: 6 µM (≈ 3.12 µg/mL); MIC [37]: 25 µM (≈ 13 µg/mL); MIC [30]: 25 µM (≈ 13 µg/mL)
O=C1C=CC(=O)N1CCCCCn1c(C2CCNCC2)nc2cc(Cl)c(Cl)cc21 | 12 (≈ 5.22 µg/mL) | > 100 | 12 (≈ 5.22 µg/mL) | – | – | – | 50 (≈ 21.8 µg/mL) | 12 (≈ 5.22 µg/mL) | – | > 100 | – | MIC [38]: > 100 µM; MIC [13]: 50 µM (≈ 21.8 µg/mL); MIC [24]: > 100 µM; MIC [39]: 100 µM (≈ 43.5 µg/mL); MIC [40]: > 100 µM
